Results as given in EP0641858A1, “SERUM CALCIUM DEPRESSING FACTOR” (Chugai Seiyaku Kabushiki Kaisha, priority 1991, dated 1992).
Non-standard residues stand in square brackets, D forms with d. Residues, ends and D or L forms follow the SMILES beside them. *: point of attachment. Sta = CC(C)C[C@H](N)[C@@H](O)CC(=O)O; Isovaleryl = CC(C)CC(=O)*

Key:
[1] = target: T1, serum calcium decreasing factor of pig origin (from porcine pancreas), N-terminal sequence SEQ ID NO: 1 (Sus scrofa, UniProt F1SUW2, E34Q/S46R); test: Effect of protease inhibitors on protease activity (azo-casein substrate, OD at 340 nm); type: biochemical
T1 sequence (F1SUW2 30-268 E34Q/S46R): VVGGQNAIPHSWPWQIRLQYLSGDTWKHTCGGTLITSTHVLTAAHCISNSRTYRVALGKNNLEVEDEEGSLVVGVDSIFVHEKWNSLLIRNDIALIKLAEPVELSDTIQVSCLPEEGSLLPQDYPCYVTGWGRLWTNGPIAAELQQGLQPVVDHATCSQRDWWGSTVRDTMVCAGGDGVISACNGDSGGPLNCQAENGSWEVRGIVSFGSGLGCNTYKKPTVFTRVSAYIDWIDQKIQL
Description: In steps of the purification, since it was observed that a fragment which was assumed to be a degraded fragment of the serum calcium decreasing factor protein, was generated, it is assumed that this serum calcium decreasing factor has proteolytic activity. An effect of various protease inhibitors against the serum calcium decreasing factor protein of this invention was tested as follows: 1 mg/ml azo-casein was used as a substrate, incubation was conducted at temperature of 37°C for 30 min in 0.25 ml, 1 ml of 5% trichloroacetic acid was added thereto, and then the supernatant from centrifugation of the reaction products was measured for OD at 340 nm. The resulting value was used as proteolytic activity. The effect of each protease inhibitor is shown based upon a percentage where proteolytic activity of a control sample without the inhibitor is 100%.
The protease inhibitors used include phenylmethansulfonyl fluoride (PMSF), which is a serin-protease inhibitor; (4-amidinophenyl)-methanesulfonyl fluoride (APMSF), which is a trypsin-type serin-protease inhibitor; leupetin, which is a trypsin-type serin-protease-thiolprotease inhibitor; chymostatin, which is a chymotrypsin-type serinprotease inhibitor; N-[N-3-trans-carboxyoxirane-2-carbonyl)-L-leucyl]agmatine (E-64), which is a thiolprotease inhibitor; pepstatin, which is an acid protease inhibitor; trypsin inhibitors which are inhibitors of trypsin, Xa-factor, plasmin and plasmakallikrein; and aprotinin, which is an inhibitor of trypsin and kallikrein.

[2] = Serum calcium lowering in mice, in vivo assay; conditions: PMSF alone administered to mice (control of Fig. 5)
Description: Male BALB/c mice of 4 to 6 weeks old were starved for 18 hours and 0.1M Tris-HCl buffer (pH 7.5) or 0.1M Tris-HCl buffer containing each of the three peaks dissolved therein was administered through a mouse tail vein at a dose of 100 µl per 20g of the body weight. After 4 hours, blood was drawn from the heart under ether anesthesia and serum was obtained. The serum calcium concentration was measured according to the orth-cresol phthalein complexion method.
Next, lowering of serum calcium concentration by serum calcium decreasing factor in an in vivo assay on mice was tested using serum calcium decreasing factor treated with PMSF and non-treated serum calcium decreasing factor. In the figure, open circles show the result of non-treated serum calcium decreasing factor, closed circles show the result of serum calcium decreasing factor treated with PMSF, and closed boxes show the result (control) wherein PMSF alone was administrated in an amount provided when serum calcium decreasing factor was administrated in an amount shown on the absissa.

[3] = inhibitor 100 µM, 1 mg/ml azo-casein, 37°C, 30 min, control without inhibitor = 100%, read-out: Activity of Protease (per Activity of Control%)

With `N=C(N)c1ccc(CS(=O)(=O)F)cc1` [APMSF, (4-amidinophenyl)-methanesulfonyl fluoride] the “inhibition of protease activity (in words)” value (from here on “inhibition”) ([1]; inhibitor 50 µM) was “not being inhibited” and the “Activity of Protease (per Activity of Control%)” value ([1]; inhibitor 50 µM, 1 mg/ml azo-casein, 37°C, 30 min, control without inhibitor = 100%) was 107.0%.
In the case of `CC(C)C[C@H](NC(=O)[C@@H](NC(=O)N[C@@H](Cc1ccccc1)C(=O)O)[C@@H]1CCN=C(N)N1)C(=O)N[C@H](C=O)Cc1ccccc1` [Chymostatin], the “inhibition” value ([1]; inhibitor 100 µM) is reported as “inhibited” and the remaining activity at 100 µM [1, 3] is reported as 16.1%.
In the case of `CC(C)CC(NC(=O)C1OC1C(=O)O)C(=O)NCCCCN=C(N)N` [E-64, N-[N-3-trans-carboxyoxirane-2-carbonyl)-L-leucyl]agmatine], the “inhibition” value ([1]; inhibitor 2.5 µg/ml) is reported as “not being inhibited” and the remaining activity at 2.5 µg/mL ([1]; inhibitor 2.5 µg/ml, 1 mg/ml azo-casein, 37°C, 30 min, control without inhibitor = 100%, read-out: Activity of Protease (per Activity of Control%)) is reported as 108%.
For `CC(=O)N[C@@H](CC(C)C)C(=O)N[C@@H](CC(C)C)C(=O)N[C@H](C=O)CCCNC(=N)N` [Leupeptin], the “inhibition” value ([1]; inhibitor 100 µM) was “partially inhibited” and the remaining activity at 100 µM [1, 3] was 86.8%.
For `O=S(=O)(F)Cc1ccccc1` [PMSF, phenylmethansulfonyl fluoride], the “inhibition” value ([1]; inhibitor 1 mM) was “inhibited”, the “Activity of Protease (per Activity of Control%)” value ([1]; inhibitor 1 mM, 1 mg/ml azo-casein, 37°C, 30 min, control without inhibitor = 100%) was 8.8% and the “lowering of serum calcium” value [2] was “did not lower serum calcium”.
With `CC(C)CC(=O)N[C@H](C(=O)N[C@H](C(=O)N[C@@H](CC(C)C)[C@@H](O)CC(=O)N[C@@H](C)C(=O)N[C@@H](CC(C)C)[C@@H](O)CC(=O)O)C(C)C)C(C)C` [Pepstatin] (Isovaleryl-VV[Sta]A[Sta]-OH) the “inhibition” value ([1]; inhibitor 100 µM) was “partially inhibited” and the remaining activity at 100 µM [1, 3] was 67.9%.
